Data set [1] relates to estrogen receptor. Put plainly: (§1) Agonist activity at estrogen receptor in human Ishikawa cells assessed as increase of estradiol-induced alkaline phosphatase expression at 1 uM after 72 hrs relative to estradiol. The conditions noted are these: Ishikawa cells, read-out: Activity. The class given is cell-based.
The subject of data set [2] is HT-22. Put plainly: Neuroprotective activity in mouse HT22 cells assessed as protection against glutamate-induced oxytosis after 24 hrs by MTT assay relative to resveratrol. The class given is functional.
Data set [3] deals with T1, Estrogen receptor beta (Homo sapiens, UniProt Q92731). Put plainly: Agonist activity at human ERbeta receptor expressed in human HEK293 cells co-expressing ERE assessed as increase of estradiol-induced luciferase gene expression at 1 uM after 18 hrs relative to estradiol. The class given is cell-based. Particulars: for Activity: hek293, 18 h, 1 µM; for activity at 18 h, 1 µM: read-out: Activity; call rule not given here.

Data set [4] has as its system HT-22. As to the kind of experiment: Neuroprotective activity in mouse HT22 cells assessed as protection against glutamate-induced oxytosis after 24 hrs by MTT assay. The class given is functional, cell-based. Particulars: HT-22, 24 h.
Data set [5] can be described thus: Antagonist activity at estrogen receptor in human Ishikawa cells assessed as inhibition of estradiol-induced alkaline phosphatase expression at 1 uM after 72 hrs relative to ICI182780. The class given is cell-based.
Data set [6] deals with Ishikawa. Put plainly: Cytotoxicity against human Ishikawa cells by LDH release assay. The class given is cell-based.
Data set [7] is described as follows: Cytotoxicity against mouse HT22 cells assessed as cell viability at 1 uM after 3 days by LDH release assay relative to control. The class given is cell-based, HT-22. The conditions noted are these: read-out: Activity.
Data set [8] addresses T1, Estrogen receptor beta. As to the kind of experiment: Antagonist activity at human ERbeta receptor expressed in human HEK293 cells co-expressing ERE assessed as inhibition of estradiol-induced of luciferase gene expression at 1 uM after 18 hrs relative to ICI182780. The class given is cell-based. The conditions noted are these: hek293, 18 h.
For data set [9], the target named is T2, Estrogen receptor (Homo sapiens, UniProt P03372).
T2 sequence (P03372 whole entry): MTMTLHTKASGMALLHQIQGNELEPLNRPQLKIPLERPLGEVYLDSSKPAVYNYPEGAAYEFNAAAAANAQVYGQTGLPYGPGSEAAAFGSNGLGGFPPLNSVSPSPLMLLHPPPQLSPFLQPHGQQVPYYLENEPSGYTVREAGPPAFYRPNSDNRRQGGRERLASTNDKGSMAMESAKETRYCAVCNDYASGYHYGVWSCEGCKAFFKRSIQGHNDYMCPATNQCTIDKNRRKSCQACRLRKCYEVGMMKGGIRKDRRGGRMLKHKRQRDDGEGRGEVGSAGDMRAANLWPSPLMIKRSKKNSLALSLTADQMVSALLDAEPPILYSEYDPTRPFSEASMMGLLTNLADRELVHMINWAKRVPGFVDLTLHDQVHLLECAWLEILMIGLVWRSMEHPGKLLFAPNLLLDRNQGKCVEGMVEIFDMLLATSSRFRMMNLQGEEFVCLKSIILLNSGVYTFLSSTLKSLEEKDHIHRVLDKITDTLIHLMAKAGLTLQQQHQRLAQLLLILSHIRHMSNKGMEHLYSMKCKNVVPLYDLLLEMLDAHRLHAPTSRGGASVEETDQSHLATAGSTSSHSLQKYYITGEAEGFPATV
As to the kind of experiment: Antagonist activity at human ERalpha receptor expressed in human MCF7:D5L cells co-expressing ERE assessed as inhibition of estradiol-induced of luciferase gene expression at 1 uM after 18 hrs relative to ICI182780. The class given is cell-based.

The target in data set [10] is Aryl hydrocarbon receptor (Mus musculus) (UniProt P30561). As to the kind of experiment: Activity at AhR expressed in mouse H1L1.1c2 cells co-expressing XRE assessed as increase of benzo[b]fluoranthene-induced luciferase gene expression at 1 uM after 72 hrs.
The target of data set [11] is T3, estrogen receptor alpha (Homo sapiens, UniProt P03372).
T3 sequence (P03372 whole entry): T2 sequence (P03372 whole entry)
Put plainly: (§2) Partial agonist activity at human ERalpha receptor expressed in human MCF7:D5L cells co-expressing ERE assessed as increase of estradiol-induced luciferase gene expression at 1 uM after 18 hrs relative to estradiol. The class given is cell-based. Particulars: read-out: Activity.

Data set [12] relates to MCF7. Put plainly: Antiproliferative activity against human stradiol-stimulated MCF7 cells at 1 uM after 96 hrs by MTT assay. The conditions noted are these: mcf7, 96 h. The class given is cell-based.
Data set [13] can be described thus: as §1. The class given is cell-based. Particulars: ishikawa, 72 h, 1 µM.
Data set [14] deals with Aryl hydrocarbon receptor (Mus musculus) (UniProt P30561). Put plainly: Activity at AhR expressed in mouse H1L1.1c2 cells co-expressing XRE assessed as induction luciferase gene expression at 1 uM after 72 hrs relative to benzo[b]fluoranthene.
The target of data set [15] is T2, Estrogen receptor. The description is as §2. Particulars: 18 h, 1 µM. The class given is cell-based.
The target of data set [16] is Aryl hydrocarbon receptor (Mus musculus) (UniProt P30561). As to the kind of experiment: Activity at AhR expressed in mouse H1L1.1c2 cells co-expressing XRE assessed as induction luciferase gene expression at 10 nM after 72 hrs.

The structures appear in SMILES notation.

T1 sequence (Q92731 whole entry): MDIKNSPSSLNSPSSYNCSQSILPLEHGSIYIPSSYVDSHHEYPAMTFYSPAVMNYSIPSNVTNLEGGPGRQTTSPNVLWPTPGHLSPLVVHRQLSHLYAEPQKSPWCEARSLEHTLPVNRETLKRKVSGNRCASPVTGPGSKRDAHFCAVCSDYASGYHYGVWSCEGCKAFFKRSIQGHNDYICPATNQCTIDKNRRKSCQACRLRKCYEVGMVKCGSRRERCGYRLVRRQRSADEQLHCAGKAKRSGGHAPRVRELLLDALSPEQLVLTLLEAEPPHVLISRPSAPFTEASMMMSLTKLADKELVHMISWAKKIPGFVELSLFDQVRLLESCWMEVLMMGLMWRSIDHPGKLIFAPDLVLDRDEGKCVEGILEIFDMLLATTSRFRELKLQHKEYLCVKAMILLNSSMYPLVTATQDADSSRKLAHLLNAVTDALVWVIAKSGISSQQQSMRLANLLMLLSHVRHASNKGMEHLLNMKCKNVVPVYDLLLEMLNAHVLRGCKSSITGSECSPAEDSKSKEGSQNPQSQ
Sequence of Aryl hydrocarbon receptor (Mus musculus) (P30561 whole entry, looked up): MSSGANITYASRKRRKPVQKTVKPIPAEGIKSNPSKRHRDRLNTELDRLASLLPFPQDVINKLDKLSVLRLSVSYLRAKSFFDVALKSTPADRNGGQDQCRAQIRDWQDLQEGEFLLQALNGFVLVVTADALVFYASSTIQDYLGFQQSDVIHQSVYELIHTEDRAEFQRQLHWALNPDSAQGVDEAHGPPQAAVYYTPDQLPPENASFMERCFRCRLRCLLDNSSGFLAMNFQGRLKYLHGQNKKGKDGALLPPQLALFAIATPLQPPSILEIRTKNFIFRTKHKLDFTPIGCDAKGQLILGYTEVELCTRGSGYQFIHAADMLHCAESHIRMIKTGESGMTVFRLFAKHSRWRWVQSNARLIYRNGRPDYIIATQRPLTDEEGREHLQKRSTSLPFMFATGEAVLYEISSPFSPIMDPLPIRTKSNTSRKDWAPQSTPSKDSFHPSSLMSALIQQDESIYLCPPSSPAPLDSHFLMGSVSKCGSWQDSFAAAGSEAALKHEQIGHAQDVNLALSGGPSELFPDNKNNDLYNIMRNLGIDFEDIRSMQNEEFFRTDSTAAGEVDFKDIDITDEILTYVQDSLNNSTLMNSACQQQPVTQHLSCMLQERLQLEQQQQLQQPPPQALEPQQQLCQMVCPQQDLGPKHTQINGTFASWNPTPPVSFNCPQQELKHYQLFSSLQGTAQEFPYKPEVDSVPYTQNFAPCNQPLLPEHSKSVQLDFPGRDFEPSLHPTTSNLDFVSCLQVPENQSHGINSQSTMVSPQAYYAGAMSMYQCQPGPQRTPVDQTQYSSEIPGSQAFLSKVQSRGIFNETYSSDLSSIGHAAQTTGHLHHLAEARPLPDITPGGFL

For the molecule `CCC(CC)c1cc(/C=C/c2cc(O)cc(O)c2)ccc1O`, the activity at 72 h, 1 µM in data set [1] was found to be 38%. Also, the “Ratio EC50” value in data set [2] was found to be 11. Further, the Activity entry in [3] is on record as “Not Active”; in data set [5], “Not Active”; in data set [6], “Non-toxic”; in data set [8], “Not Active”; in [9], “Not Active”; in data set [10], 1.7%. Further, the EC50 in data set [4] turned out to be 0.432 µM. For the same molecule, the percent cytotoxicity (LDH release relative to control) at 72 h, 1 µM in [7] is -1%. Further, the activity at 18 h, 1 µM in [11] was determined as 65%.
For `CCC(CC)c1cc(/C=C/c2cc(O)cc(O)c2)cc(C(CC)CC)c1O`, the Activity entry in data set [12] is given as “Non-toxic”; in data set [13] it was “Not Active”; in [3], “Not Active”; in data set [5], “Not Active”; in [6] it was “Non-toxic”; in [8], “Not Active”. Also, the results for the Activity entry in [9], in [10] and in data set [15] were “Not Active”, 3% and “Not Active”, respectively. For the same molecule, in [2], the “Ratio EC50” value came to 156. For the same molecule, the EC50 in [4] amounted to 0.03 µM. Moreover, the Ratio in data set [14] is on record as 1.9. The percent cytotoxicity (LDH release relative to control) at 72 h, 1 µM in data set [7] was -6.7%.
With `CC(C)(C)c1cc(/C=C/c2cc(O)cc(O)c2)ccc1O`, the Activity entry is on record as “Not Active” in data set [13]; “Not Active” in data set [3]; “Not Active” in data set [5]; “Non-toxic” in [6]; “Not Active” in data set [8]; “Not Active” in [9]. Besides, the Activity was 1.5% in data set [10] and “Not Active” in [15]. The “Ratio EC50” value in [2] came to 9.6. Further, the EC50 in [4] is 0.484 µM. Moreover, the percent cytotoxicity (LDH release relative to control) at 72 h, 1 µM in [7] was -6%.
On to `CC(C)(C)c1cc(/C=C/c2cc(O)cc(O)c2)cc(C(C)(C)C)c1O`, for which the Activity entry was “Non-toxic” in data set [12]; “Not Active” in data set [13]; “Not Active” in data set [3]; “Not Active” in data set [5]; “Non-toxic” in data set [6]; “Not Active” in data set [8]. Also, the values for the Activity entry in data set [9], in data set [10] and in data set [15] were “Not Active”, 1.5% and “Not Active”, respectively. Further, the “Ratio EC50” value in data set [2] stood at 104. In addition, the half-maximal effective concentration (EC50) in [4] is 0.045 µM. In [7], the percent cytotoxicity (LDH release relative to control) at 72 h, 1 µM was -6.7%.
As to `CCC(CC)c1cc(/C=C/C=C/c2cc(O)cc(O)c2)ccc1O`, in data set [1], the activity at 72 h, 1 µM came to 21%. The “Ratio EC50” value in data set [2] is 59. The Activity result is “Not Active” in data set [3]; “Not Active” in data set [5]; “Non-toxic” in [6]; “Not Active” in [8]; “Not Active” in data set [9]; 1.7% in data set [10]. In addition, the EC50 in [4] is 0.079 µM. Moreover, the percent cytotoxicity (LDH release relative to control) at 72 h, 1 µM in [7] was -5%. Further, the activity at 18 h, 1 µM in data set [11] came to 37%.
For `CCC(CC)c1cc(/C=C/C=C/c2cc(O)cc(O)c2)cc(C(CC)CC)c1O`, the Activity entry in data set [12] is recorded as “Non-toxic”; in [13], “Not Active”; in [3] it was “Not Active”; in data set [5], “Not Active”; in data set [6] it was “Non-toxic”; in [8], “Not Active”. Besides, the Activity result in data set [9] was “Not Active”; in data set [10] it was 2.2%; in data set [15], “Not Active”. Moreover, in [2], the “Ratio EC50” value is 389. Further, the EC50 in data set [4] is 0.012 µM. The percent cytotoxicity (LDH release relative to control) at 72 h, 1 µM in [7] was -6%.
As for `CC(C)(C)c1cc(/C=C/C=C/c2cc(O)cc(O)c2)ccc1O`, the Activity entry in data set [13] is given as “Not Active”; in data set [5], “Not Active”; in data set [6], “Non-toxic”; in [8] it was “Not Active”; in data set [9] it was “Not Active”; in data set [10] it was 1.6%. Further, in data set [2], the “Ratio EC50” value worked out at 51. Besides, the activity at 18 h, 1 µM in data set [3] worked out at 18%; in [11], 34%. The EC50 in data set [4] was determined as 0.091 µM. The percent cytotoxicity (LDH release relative to control) at 72 h, 1 µM in [7] is -8.7%.
For the molecule `CC(C)(C)c1cc(/C=C/C=C/c2cc(O)cc(O)c2)cc(C(C)(C)C)c1O`, the Activity result in data set [13] is reported as “Not Active”; in [3], “Not Active”; in data set [5], “Not Active”; in [6], “Non-toxic”; in [8], “Not Active”; in [9], “Not Active”. Moreover, the Activity in [10] is reported as 1.6%; in [15], “Not Active”. Further, in data set [2], the “Ratio EC50” value is recorded as 39. Besides, in data set [4], the EC50 worked out at 0.119 µM. In addition, in data set [7], the percent cytotoxicity (LDH release relative to control) at 72 h, 1 µM was -5.3%.
On to `CC(C)(C)c1cc(/C=C/c2ccc(O)cc2)ccc1O`, for which the activity at 72 h, 1 µM in data set [1] was 25%. In addition, the “Ratio EC50” value in data set [2] was 4.4. In addition, the activity at 18 h, 1 µM in [3] turned out to be 19%; in data set [11], 49%. For the same molecule, in [4], the EC50 was 1.06 µM. For the same molecule, the Activity result in data set [5] is given as “Not Active”; in data set [6] it was “Non-toxic”; in data set [8] it was “Not Active”; in data set [9] it was “Not Active”; in data set [10] it was 1.5%. In data set [7], the percent cytotoxicity (LDH release relative to control) at 72 h, 1 µM was -5.3%.
As to `CC(C)(C)c1cc(/C=C/c2cc(C(C)(C)C)c(O)c(C(C)(C)C)c2)cc(C(C)(C)C)c1O`, the Activity result in [13] is “Not Active”; in [3], “Not Active”; in data set [5], “Not Active”; in data set [6], “Non-toxic”; in data set [8] it was “Not Active”; in [9] it was “Not Active”. The Activity in [10] was 1.4%; in [15] it was “Not Active”. For the same molecule, in [2], the “Ratio EC50” value is reported as 12. The EC50 in data set [4] turned out to be 0.399 µM. Also, the percent cytotoxicity (LDH release relative to control) at 72 h, 1 µM in data set [7] worked out at 1.3%.
As to `COc1c(C(C)(C)C)cc(/C=C/c2cc(O)cc(O)c2)cc1C(C)(C)C`, the “Ratio EC50” value in [2] amounted to 7.5. In [4], the EC50 is 0.621 µM.
Turning to `COc1c(C(C)(C)C)cc(/C=C/C=C/c2cc(O)cc(O)c2)cc1C(C)(C)C`, the “Ratio EC50” value in data set [2] is 11. Also, the EC50 in data set [4] is 0.41 µM.
In the same order, the values of `COc1cc(O)cc(/C=C/c2cc(C(C)(C)C)c(O)c(C(C)(C)C)c2)c1` are 18 and 0.258 µM.
In the same order, the values of `COc1c(C(C)(C)C)cc(/C=C/c2cc(C(C)(C)C)c(O)c(C(C)(C)C)c2)cc1C(C)(C)C` are less than 1 and greater than 10 µM.
Take `c1ccc2c(c1)-c1cccc3c1c-2cc1ccccc13` [BENZO[B]FLUORANTHENE]: the Activity in data set [16] was determined as 13.1%.
As to `Oc1ccc(/C=C/c2cc(O)cc(O)c2)cc1` [RESVERATROL], the Activity entry in [13] is given as “Not Active”; in data set [5] it was “Not Active”; in data set [6], “Non-toxic”; in [10], 1.2%; in data set [15], “Not Active”. For the same molecule, the EC50 in data set [4] turned out to be 4.67 µM. In addition, in [7], the percent cytotoxicity (LDH release relative to control) at 72 h, 1 µM was 4%.

The record behind these values is ChEMBL document CHEMBL1641570, “New hydroxystilbenoid derivatives endowed with neuroprotective activity and devoid of interference with estrogen and aryl hydrocarbon receptor-mediated transcription” (Bioorg Med Chem, 2011).
